Consider 13 molecules from patent publication US11926613B2, “Kinase inhibitors for the treatment of central and peripheral nervous system disorders” (UNIVERSITY OF MIAMI, priority 2017, dated 2024).

The subject of one assay is Primary Neurons. Nature of the assay: HCS neurite outgrowth assay (High Content Screening with Primary Neurons). Format: cell-based. The following applies: Primary neuron.
Assay [1] has as its system neurons from hippocampi of E18 rat embryos. Nature of the assay: Neurite growth length (% NTL) in cultured E18 rat hippocampal neurons, 9-point dose response, 48 hours. Format: cell-based. The following applies: Rattus norvegicus, Neuron, 48 h; for activity at 0.078 µM: 78 nM; for activity at 0.156 µM: 156 nM; for activity at 0.312 µM: 312 nM; for activity at 0.625 µM: 625 nM. The procedure, abridged:
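% NTL comes from automated neurite tracing of βIII-tubulin-stained cells, with 200–300 or more neurons per condition. Compounds were given in a 9-point dilution series (20 μM to 0.078125 μM) for 48 h. Cells were trypsin-dissociated E18 rat hippocampal neurons plated at 1500/well on poly-D-lysine.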

The structures appear in SMILES notation. Bounds are passed on as bounds.

Turning to `COc1ccc(OC)c(C(=O)c2ccc(C(=O)N[C@@H]3CCCC[C@H]3NC(=O)c3ccncc3)cc2)c1F` [Example A21, N-[(1R,2R)-2-[4-(2-fluoro-3,6-dimethoxybenzoyl)benzamido]cyclohexyl] pyridine-4-carboxamide], in the assay on Primary Neurons, the midpoint of the response, the EC50, lay at 2.92 µM. In addition, in assay [1], the activity at 0.078 µM is 84.7%, the activity at 0.156 µM worked out at 83.3%, the activity at 0.312 µM turned out to be 79.8% and the activity at 0.625 µM worked out at 81.8%. Besides, in assay [1], the activity at 1.25 µM was determined as 86.8%, the activity at 2.5 µM amounted to 91.5%, the activity at 5 µM was 102% and the activity at 10 µM is 107%. For the same molecule, in assay [1], the activity at 20 µM was found to be 108%.
In the assay with Primary Neurons, `COc1ccc(O)c(C(=O)c2ccc(C(=O)N[C@@H]3CNC[C@H]3NC(=O)c3ccncn3)cc2)c1F` [Example A41, N-[(3R,4R)-4-[4-(2-fluoro-6-hydroxy-3-methoxybenzoyl)benzamido]pyrrolidin-3-yl]pyrimidine-4-carboxamide] returned an EC50 of 11 µM. In assay [1], the activity at 0.078 µM was found to be 91.3%, the activity at 0.156 µM stood at 88.5%, the activity at 0.312 µM came out at 86.2% and the activity at 0.625 µM was determined as 87%. Also, in assay [1], the activity at 1.25 µM came out at 95.9%, the activity at 2.5 µM turned out to be 102%, the activity at 5 µM is 124% and the activity at 10 µM was found to be 152%. Also, the activity at 20 µM in assay [1] amounted to 190%.
Molecule `COc1ccc(O)c(C(=O)c2ccc(C(=O)N[C@@H]3c4ccccc4C[C@H]3NC(=O)c3ccncc3)cc2)c1F` [Example A14, N-[(1R,2R)-1-[4-(2-fluoro-6-hydroxy-3-methoxybenzoyl)benzamido]-2,3-dihydro-1H-inden-2-yl]pyridine-4-carboxamide] gave an EC50 in the assay with Primary Neurons of more than 20 µM. For the same molecule, in assay [1], the activity at 0.078 µM came out at 105%, the activity at 0.156 µM was 111%, the activity at 0.312 µM turned out to be 118% and the activity at 0.625 µM amounted to 119%. In assay [1], the activity at 1.25 µM is 127%, the activity at 2.5 µM worked out at 126%, the activity at 5 µM came out at 140% and the activity at 10 µM came to 154%. Further, the activity at 20 µM in assay [1] was found to be 175%.
In turn, `COc1ccc(OC)c(C(=O)c2ccc(C(=O)N[C@@H]3c4ccccc4C[C@H]3NC(=O)c3ccncc3)cc2)c1F` [Example A12, N-[(1R,2R)-1-[4-(2-fluoro-3,6-dimethoxybenzoyl)benzamido]-2,3-dihydro-1H-inden-2-yl]pyridine-4-carboxamide] returned an EC50 with Primary Neurons of more than 20 µM. Also, in assay [1], the activity at 0.078 µM amounted to 96.6%, the activity at 0.156 µM is 90.7%, the activity at 0.312 µM amounted to 91.2% and the activity at 0.625 µM stood at 93.1%. In assay [1], the activity at 1.25 µM came to 90.6%, the activity at 2.5 µM was 91%, the activity at 5 µM was determined as 106% and the activity at 10 µM amounted to 98.6%. The activity at 20 µM in assay [1] stood at 119%.
Regarding `COc1ccc(O)c(C(=O)c2ccc(C(=O)N[C@@H]3CNC[C@H]3NC(=O)c3ccc4c(cnn4C)c3)cc2)c1F` [Example A53, N-[(3R,4R)-4-[4-(2-fluoro-6-hydroxy-3-methoxybenzoyl)benzamido]pyrrolidin-3-yl]-1-methyl-1H-indazole-5-carboxamide], the midpoint of the response with Primary Neurons, the EC50, lay at 0.814 µM. Besides, in assay [1], the activity at 0.078 µM came out at 90%, the activity at 0.156 µM worked out at 82.5%, the activity at 0.312 µM worked out at 79.3% and the activity at 0.625 µM was 76.3%. In addition, in assay [1], the activity at 1.25 µM worked out at 85.8%, the activity at 2.5 µM worked out at 88.5%, the activity at 5 µM came out at 90.1% and the activity at 10 µM turned out to be 91.9%. In assay [1], the activity at 20 µM came out at 70%.
Take `Cc1ccc(O)c(C(=O)c2ccc(C(=O)N[C@@H]3CNC[C@H]3NC(=O)c3ccncc3)cc2)c1` [Example A78, N-[(3R,4R)-4-[4-(2-hydroxy-5-methylbenzoyl)benzamido]pyrrolidin-3-yl]pyridine-4-carboxamide]: in the assay on Primary Neurons, the EC50 was found to be 7.77 µM. Besides, in assay [1], the activity at 0.078 µM came out at 122%, the activity at 0.156 µM amounted to 121%, the activity at 0.312 µM stood at 133% and the activity at 0.625 µM is 143%. In addition, in assay [1], the activity at 1.25 µM is 152%, the activity at 2.5 µM was 176%, the activity at 5 µM is 256% and the activity at 10 µM worked out at 410%. Besides, the activity at 20 µM in assay [1] was found to be 503%.
In the assay with Primary Neurons, `COc1cccc(C(=O)c2ccc(C(=O)N[C@@H]3CNC[C@H]3NC(=O)c3ccnc(N)n3)cc2)c1O` [Example A72, 2-amino-N-[(3R,4R)-4-[4-(2-hydroxy-3-methoxybenzoyl)benzamido]pyrrolidin-3-yl]pyrimidine-4-carboxamide] showed an EC50 of more than 20 µM. Further, in assay [1], the activity at 0.078 µM worked out at 96.4%, the activity at 0.156 µM stood at 94%, the activity at 0.312 µM is 97.7% and the activity at 0.625 µM was 108%. In assay [1], the activity at 1.25 µM came out at 106%, the activity at 2.5 µM worked out at 105%, the activity at 5 µM is 113% and the activity at 10 µM came out at 127%. Also, the activity at 20 µM in assay [1] was 157%.
Consider `COc1ccc(O)c(C(=O)c2ccc(C(=O)N[C@@H]3CNC[C@H]3NC(=O)c3ccc4[nH]nnc4c3)cc2)c1F` [Example A58, N-[(3R,4R)-4-[4-(2-fluoro-6-hydroxy-3-methoxybenzoyl)benzamido]pyrrolidin-3-yl]-1H-1,2,3-benzotriazole-5-carboxamide], for which the EC50 in the assay with Primary Neurons was found to be 5.27 µM. Also, in assay [1], the activity at 0.078 µM was found to be 88.3%, the activity at 0.156 µM is 87.6%, the activity at 0.312 µM was 79.3% and the activity at 0.625 µM amounted to 75.7%. Also, in assay [1], the activity at 1.25 µM is 76.3%, the activity at 2.5 µM was determined as 84.8%, the activity at 5 µM turned out to be 85.3% and the activity at 10 µM was 89.5%. Besides, in assay [1], the activity at 20 µM amounted to 88.6%.
As for `COc1ccc(O)c(C(=O)c2ccc(C(=O)N[C@@H]3CNC[C@H]3NC(=O)Cc3cn[nH]c3)cc2)c1F` [Example A47, 4-(2-fluoro-6-hydroxy-3-methoxybenzoyl)-N-[(3R,4R)-4-[2-(1H-pyrazol-4-yl)acetamido]pyrrolidin-3-yl]benzamide], in the assay with Primary Neurons, the response was half-maximal at 7.43 µM (EC50). Further, in assay [1], the activity at 0.078 µM came out at 100%, the activity at 0.156 µM is 99.3%, the activity at 0.312 µM worked out at 99.7% and the activity at 0.625 µM is 96.8%. Further, in assay [1], the activity at 1.25 µM stood at 104%, the activity at 2.5 µM came out at 112%, the activity at 5 µM was 122% and the activity at 10 µM stood at 128%. In assay [1], the activity at 20 µM was 162%.
In the case of `Nc1nccc(C(=O)N[C@@H]2CNC[C@H]2NC(=O)c2ccc(C(=O)c3cc(Cl)ccc3O)cc2)n1` [Example A84, 2-amino-N-[(3R,4R)-4-[4-(5-chloro-2-hydroxybenzoyl)benzamido]pyrrolidin-3-yl]pyrimidine-4-carboxamide], the midpoint of the response with Primary Neurons, the EC50, lay at 6.86 µM. In assay [1], the activity at 0.078 µM stood at 115%, the activity at 0.156 µM was found to be 118%, the activity at 0.312 µM was 125% and the activity at 0.625 µM is 139%. Further, in assay [1], the activity at 1.25 µM is 153%, the activity at 2.5 µM is 165%, the activity at 5 µM amounted to 270% and the activity at 10 µM worked out at 492%. In addition, the activity at 20 µM in assay [1] stood at 564%.
Turning to `COc1ccc(OC)c(C(=O)c2ccc(C(=O)O[C@@H]3CCN(C)C[C@H]3NC(=O)c3ccncc3)cc2)c1F` [Example A30, (3R,4R)-1-methyl-3-(pyridine-4-amido)piperidin-4-yl 4-(2-fluoro-3,6-dimethoxybenzoyl)benzoate], in the assay on Primary Neurons, the response was half-maximal at 4.92 µM (EC50). In addition, in assay [1], the activity at 0.078 µM worked out at 93.1%, the activity at 0.156 µM came to 89.7%, the activity at 0.312 µM came to 90.5% and the activity at 0.625 µM was determined as 83.5%. Further, in assay [1], the activity at 1.25 µM was determined as 93.8%, the activity at 2.5 µM worked out at 94.8%, the activity at 5 µM worked out at 103% and the activity at 10 µM came out at 107%. Also, the activity at 20 µM in assay [1] stood at 117%.
Consider `COc1ccc(O)c(Cc2ccc(C(=O)N[C@@H]3CNC[C@H]3NC(=O)c3ccnc(N)n3)cc2)c1F` [Example A45, 2-amino-N-[(3R,4R)-4-{4-[(2-fluoro-6-hydroxy-3-methoxyphenyl)methyl]benzamido}pyrrolidin-3-yl]pyrimidine-4-carboxamide], for which the EC50 in the assay on Primary Neurons is more than 20 µM. For the same molecule, in assay [1], the activity at 0.078 µM worked out at 96.5%, the activity at 0.156 µM stood at 90.2%, the activity at 0.312 µM is 83.7% and the activity at 0.625 µM stood at 87%. In assay [1], the activity at 1.25 µM was determined as 84.8%, the activity at 2.5 µM worked out at 93.3%, the activity at 5 µM was determined as 89.1% and the activity at 10 µM was 97.2%. Further, the activity at 20 µM in assay [1] stood at 111%.
On to `O=C(N[C@@H]1CNC[C@H]1NC(=O)c1ccc(C(=O)c2ccccc2)cc1)c1ccncc1` (stereo in doubt) [Example A13, N-[(3R,4R)-4-(4-benzoylbenzamido)pyrrolidin-3-yl]pyridine-4-carboxamide], for which, in the assay on Primary Neurons, it took 4.96 µM to reach a half-maximal effect (EC50). In addition, in assay [1], the activity at 0.078 µM stood at 99.5%, the activity at 0.156 µM was found to be 101%, the activity at 0.312 µM was 97.7% and the activity at 0.625 µM was 103%. Also, in assay [1], the activity at 1.25 µM worked out at 106%, the activity at 2.5 µM was 113%, the activity at 5 µM is 120% and the activity at 10 µM came out at 129%. For the same molecule, the activity at 20 µM in assay [1] came out at 147%.
